One series concerns mammary tumors. As to the kind of experiment: MPA/DMBA-induced mammary tumorigenesis in mice exposed in utero to EE2 or GEN, with or without adult HDAC+DNMT inhibitors. Particulars: mouse, in vivo. On the procedure:
Time pregnant C57BL/6 female mice were obtained from Harlan (Harlan-Teclad, USA) on gestation day 6, and were randomly assigned into three groups on the following day (gestation day 7). The basic diet formulation in the study was a semi-purified AIN93G (the American Institute of Nutrition) modified to replace soy oil for corn oil; all the diets of the three treatment groups were also purchased from Harlan. The diets were isocaloric, as ethinyl estradiol (EE2) or genistein (GEN) were added in the diet at the expense of comstarch. Additions to the basic diet were as follows: 1) EE2 0.1 ppm, and 2) GEN 500 ppm. EE2 was purchased from Sigma Chemicals (St. Louis, Mo., USA), and GEN was a gift from Dr. William Helferich (University of Illinois, Urbana, Ill., USA).
The pregnant dams were fed these diets until the day of the delivery of their pups (Post Natal Day 0, PND 0). Starting on PND 0, all mice were fed the control diet until the end of the study. Female mice born from the dams fed with the different above mentioned diets were used in the subsequent studies. For study outline, see FIG. 12. Animals were housed in a temperature- and humidity-controlled room under a 12-hour light-dark cycle. All animal procedures were approved by the Georgetown University Animal Care and Use Committee, and the experiments were performed following the National Institutes of Health guidelines for the proper and humane use of animals in biomedical research.
Mammary tumors were induced by administration of a subcutaneous injection of Medroxyprogesterone Acetate (MPA) to mice at 6 weeks of age, followed by administration of 1 mg 7,12-dimethylbenz(a)anthracene (DMBA) (Sigma, St. Louis, Mo.) weekly for four weeks (weeks 7, 8, 9, 10) (23). The carcinogen was dissolved in corn oil and administered by oral gavage in a volume of ca. 0.1 ml.
One week after the last dose of DMBA was administered, some of the mice were started on hydralazine (5 mg/kg/day) and valproic acid treatments (1.16 g/kg/day) treatments.
The two compounds were given in a drinking water, which was prepared fresh twice a week. The doses were chosen based on the literature (24-26). The number of animals in each group is as follows: Control n=18, Control given HDAC+DNMT inhibitors n=9, EE2 n=9, EE2 given HDAC+DNMT inhibitors n=6, GEN n=14, and GEN given HDAC+DNMT inhibitors n=8.
Mice were examined for mammary tumors by palpation once per week. Tumor growth was monitored for 16 weeks after the last dose of DMBA administration. During the follow-up, animals in which tumor burden approximated 10% of total body weight were euthanized, as required by the ethical guidelines of our institution. All surviving animals were sacrificed at that point for sample collection. The end-points for tumor data analysis were (i) latency to tumor appearance, (ii) the number of animals with tumors (tumor incidence), and (iii) the cumulative tumor area (tumor burden). The latter was achieved by adding the total tumor area per group each week and dividing it with the number of mice in the group.
(§1) Mammary tumor latency was compared with the final tumor burden in utero EE2 and GEN exposed mice to control mice, and in utero EE2 and GEN exposed mice to control mice exposed to HDAC+DNMT inhibitors separately; analysis was done using one-way ANOVA. Cumulative tumor burden during 16 weeks of tumor monitoring in the three groups, separately in those mice not given HDAC+DNMT inhibitors and those treated with the epigenetic drugs, was analysed using repeated measures one-way ANOVA. Log rank analysis was performed to compare mammary tumor incidence in the control and in utero EE2 and GEN exposed mice, again separately in those mice not given HDAC+DNMT inhibitors and those treated with the epigenetic drugs. Data for changes in DNMT1 expression among the groups in the mammary glands and tumors were assessed using two-way ANOVA, followed by Fisher LSD test

Another series relates to mammary glands. As to the kind of experiment: Cell proliferation (Ki-67 immunohistochemistry) in PND50 mammary glands. It counts as in vivo, Sprague Dawley rats. The method, then:
To determine whether the increase in DNA adduct formation may reflect increased cell proliferation, expression of Ki-67, a marker of cell proliferation, was assessed on PND50 mammary glands using immunohistochemistry. The ki-67 status of each sample was evaluated according to a modified version of the scoring system proposed by Allred et al. The total score for each sample was calculated as the sum of the estimated proportion of positive-staining cells ([…]) plus the estimated intensity of positive-staining cells (0-4).

The subject of a further series is DNMT1. As to the kind of experiment: DNMT1 mRNA expression (qRT-PCR) in mouse mammary glands and tumors. Particulars: in utero exposure vs control mice. Format: in vivo.
Source text: Total RNA was extracted using an RNeasy lipid mini kit (Qiagen, CA), according to manufacturer's instructions. One […] of total RNA per sample was used as a template for oligo-dT primed cDNA synthesis with a Supterscript reverse transcriptase, using Taqman Reverse Transcription kit (Applied Biosystems, CA). The cDNA samples served then as templates for quantitative real time PCR analysis with specific primers for the target gene using QuantiTect SYBR green PCR kit (Qiagen Inc., Valencia, Calif.) and an ABI Prism 7900 Sequence Detection System. Each sample was run in triplicate on a 384-well plate, and the qPCR run was repeated twice. The Ct values were averaged from the triplicates for each sample. To normalize the target gene expression the ratio to control RNA was calculated, i.e. the averages of the Ct triplicates from the Dnmt1 gene were divided by the average of the triplicates from the 18S gene. To determine the fold change of the target gene expression the results are presented as 2^ΔCt, where ΔCt=CT^target−Ct^18S.
The primer sequences for m18S rRNA were as previously published by Wang et al. (27).
as §1
(In qPCR the cycle at which signal appears reflects the starting amount.)

Another series relates to mammary gland. Nature of the series: Number of terminal end buds (TEBs) in mammary whole mounts of F1-F3 rat offspring. It counts as in vivo, Sprague-Dawley rats. Particulars: mean±s.e.m. On the procedure:
Whole mounts (n=5-6 per group and age) were examined under the microscope and evaluated as described before (28) to assess the number of terminal end buds (TEBs). Results were analyzed by t-test (or Mann-Whitney Rank Sum test) or one-ANOVA (when comparing outcross groups in F2 generation). Where appropriate, between groups comparisons after ANOVA were done by Holm-Sidak multi-comparison procedure.

The mark [1] stands for this setting: Con x EE2 outcross (F2 generation).
Where [2] appears, read: EE2 x Con outcross (F2 generation).
Setting [3] is: maternal EE2 diet 0.1 ppm, F1 generation.
The mark [4] stands for this setting: maternal EE2 diet, F2 generation.
The mark [5] stands for this setting: maternal EE2 diet, F3 generation.

Entries after “also recorded” stand apart in the source; their conditions may differ.

For the compound `C#C[C@]1(O)CC[C@H]2[C@@H]3CCc4cc(O)ccc4[C@H]3CC[C@@]21C` [EE2, ethinyl estradiol], in the series on mammary tumors, the “Final tumor burden per mouse” value is “significantly higher”. Besides, the Mammary tumor incidence result with mammary tumors is given as “significantly higher”. In addition, in the series on mammary tumors, the mammary tumorigenesis entry is given as “increased mammary tumorigenesis”. The “cell proliferation by ki-67” value in the series on mammary glands (F1 generation) was “non-significantly increased”; in the series with mammary glands (F2 generation, compared to the controls), “significantly lower”. Further, the “DNMT1 expression in mammary tumors” value in the series on DNMT1 was “significantly lower”. The “expression of DNMT1 in mammary glands” value with DNMT1 was “an increase in the expression of DNMT1; also recorded: persistent up-regulation”. The “Number of TEBs PND 21” value in the series with mammary gland (setting [1]) is on record as 19.4 ± 1.5; with mammary gland (setting [2]), 32.7 ± 3.6; in the series on mammary gland (setting [3]), 25.3 ± 1.3; in the series with mammary gland (setting [4]) it was 30.8 ± 1.9; with mammary gland (setting [5]), 33.0 ± 2.1. Moreover, the “Number of TEBs PND 50” value in the series with mammary gland (setting [1]) is listed as 11.0 ± 1.2; in the series with mammary gland (setting [2]), 22.8 ± 1.6; in the series on mammary gland (setting [3]) it was 32.5 ± 2.3; in the series on mammary gland (setting [4]) it was 22.2 ± 3.8; in the series on mammary gland (setting [5]) it was 28.7 ± 3.4.
